Columns and labels:
[1] = test system: rat C6 glioma cells; assay: Inhibition of growth of rat C6 glioma cells (observation and cell counting); format: cell-based; conditions: 2.5, 5 and 10 µg/mL, 48 hours; cell density and cell counting (Fig. 1)
Protocol: The cancer cell line, rat C6 glioma cells, was cultured in Dulbecco's modified Eagle's medium (DMEM; Gibco) supplemented with penicillin G, streptomycin sulphate, 0.5 mM of L-glutamine and 10% fetal bovine serum (FBS; Gibco) at 37 °C, 5% CO2 and 95% relative humidity. For all experiments, the cells were seeded at a density of 3×10^5 per well in 6-well plates. After 24 hours, the cells were treated with different concentrations of the compound NBM-HD-1 (i.e., the compound of formula III depicted herein). After 48 hours, the cells were observed and counted. According to the results shown in Fig. 1, NBM-HD-1 can arrest the growth of rat C6 glioma cells. After the C6 glioma cells were incubated with 2.5 µg/mL (see Fig. 1(A)-b), 5 µg/mL (see Fig. 1(A)-c) and 10 µg/mL (see Fig. 1(A)-d) of NBM-HD-1 for 48 hours, the density of the cells reduced dramatically in comparison with that of control (see Fig. 1(A)-a).

[2] = test system: rat C6 glioma cells; assay: Cell cycle analysis of C6 glioma cells, DNA content by PI staining and FACScan cytometry; format: cell-based; conditions: 0, 2.5, 5 and 10 µg/mL, 72 hours (Fig. 2)
Protocol: 1×10^6 of rat C6 glioma cells were treated with various concentrations of NBM-HD-1 (0 µg/mL, 2.5 µg/mL, 5 µg/mL, and 10 µg/mL) for 72 hours. The treated cells were trysinized and collected. The cells were resuspended in 200 µL PBS and then fixed by adding 800 µL of cold 100% ethanol. The resulting cells were fixed overnight at -20[…]. The cell pellets were collected by centrifugation, resuspended in 1 mL of hypotonic buffer (0.5% Triton X-100 in PBS and 1 µg/mL RNase A), and incubated at 37 °C for 30 minutes. Then, 1 mL of PI solution (50 µg/mL) was added to the resulting cell pellets. The mixture was allowed to stand at 4[…] for 30 min. The DNA amounts of the cells were analyzed by FACScan Cytometry (Becton Dickinson) (see Fig. 2).

[3] = test system: rat C6 glioma cells; assay: RT-PCR of cell cycle regulator mRNA in C6 glioma cells; format: cell-based; conditions: GAPDH internal control (Fig. 3)
Protocol: For the rat C6 glioma cells, the cell cycle related to mRNA expression was examined by RT-PCR. The total RNAs were isolated from the treated C6 cells by using the RNeasy Mini Kit (Qiagen) according to the manufacturer's instructions. The cDNAs were produced from 500ng of total RNAs using ReverTra-Plus-TM (TOYOBO). The RT product (1µl) was amplified by PCR with primers to analyze several genes of cell cycle by using GAPDH as an internal control. According to the results of Fig. 3, NBM-HD-1 can modulate the expression of some cell cycle regulators. […] On the contrary, the expression of p21 was increased.

[4] = test system: HDAC; assay: HDAC activity assay (fluorometric kit) on nuclear extracts of treated C6 glioma cells; format: cell-based, rat; conditions: C6 glioma cells treated 24 hours, nuclear extract, fluorescence (Fig. 6)
Protocol: The C6 glioma cells were treated with different doses of NBM-HD-1 and sodium butyrate (SB). After 24 hours, the cells were harvested to extract the nuclear proteins by NucBuster™ Protein Extraction Kit (Novagen) as described by the manufacturer's instructions. These extracts were then used in HDAC Activity Assay Kit (Calbiochem) to analyze their HDAC (histone deacetylase) inhibition activities. The HDAC fluorometric substrate, which comprises an acetylated lysine side chain, was incubated with extracted nuclear protein first. Deacetylation of the substrate sensitized the substrate, so that, in the second step, treatment with the Lysine Developer produced a fluorophore. The fluorophore can easily be analyzed by using a fluorescence plate reader. […] Inhibition of HDAC has been implicated in the induction of differentiation in cancer cells. In this experiment, a well-known compound for HDAC inhibition, sodium butyrate, was used as a positive control.

[5] = test system: human giloblastoma DBTRG-05MG cancer cells; assay: Inhibition of growth and change of morphology of DBTRG-05MG cells; format: cell-based
Protocol: The human giloblastoma DBTRG-05MG cancer cells were cultured in RPMI medium 1640 (Gibco) supplemented with penicillin G, streptomycin sulphate, 0.5 mM of L-glutamine and 10% fetal bovine serum (FBS; Gibco), 100mh/L sodium pyruvate (Gibco), and 1% NEAA (Gibco) at 37 °C, 5% CO2 and 95% relative humidity. For these experiments, the cells were seeded at a density of 3×10^5 per well of 6-well plates. After 24 hours, the cells were treated with different concentrations of NBM-HD-1 and 4 mM sodium butyrate. The cells were observed and counted after 72 hours. […] In 05MG cells (Fig. 7(A)), after incubation with 2.5 µg/mL (Fig. 7(A)-b), 5 µg/mL (Fig. 7(A)-c) and 10 µg/mL (Fig.7(A)-d) of NBM-HD-1 for 72 hours, the density of the cells reduced dramatically in comparison with that of the control group (Fig. 7(A)-a). The 05MG cells in the experimental group also changed to become longer than those in the control group.

[6] = test system: cortical neurons; assay: Neurite outgrowth of cortical neurons cultivated from fetal rat neural stem cells; format: cell-based, Wistar rat; conditions: 0.63 µg/mL
Protocol: The growth medium for the NSCs (neural stem cells) and cortical neurons was prepared by adding penicillin G, streptomycin and 0.5 mM of L-glutamine into a B-27 supplemented neurobasal medium (Gibco). The unborn fetus was taken out of the fetal sac in the abdominal cavity of a 17-day pregnant Wistar rat under anesthesia. The cerebral tissue was removed from the fetus and treated with 0.1 % trypsin solution at 25 °C for three minutes. After washing with PBS solution 3 times, the cells were dissociated by up and down mixing. The resulting solution was passed through a 70µm Nylon cell strainer (Falcon) in order to obtain the filtrate that contained cerebral cells. The filtrate was centrifuged at 1000 rpm for 10 minutes and the supernatant was aspirated. The resulting pellet was resuspended in the growth medium prepared as stated above. The resulting suspension contained NSCs.
The cells obtained from the suspension were cultivated in 6-well plates coated with 30 µg/ml of poly-D-lysine (Sigma) at the density of 75 cells/mm^2. The cells were cultured at 37 °C, 5% CO2 and 95% relative humidity. The growth media contained 0.63 µg/mL of NBM-HD-1 and the growth media with 1 µl of DMSO was used as the control. […]
After cultivation for 6 days, live cells were observed by microscope. The lengths of the neurites of the neurons in 6 different fields were measured and averaged. […]

SMILES: COc1cc2c(c(OC)c1CCC(C)(C)O)C(=O)C[C@@H](c1ccc(OC)c(OC)c1C/C=C(\C)CCCC(C)(C)O)O2 [NBM-HD-1]
- growth of C6 glioma cells [1]: can inhibit the growth of C6 glioma cells in a dose-dependent manner
- cell cycle (DNA contents) [2]: cell cycle arrest on the G0/G1 phase in a dose-dependent manner
- expression of cyclinB1 [3]: decrease the expression of cyclinD1 and cyclinB1 in a dose-dependent manner
- expression of cyclinD1 [3]: decrease the expression of cyclinD1 and cyclinB1 in a dose-dependent manner
- expression of p21 [3]: increased
- HDAC activity [4]: significantly inhibits HDAC activity
- morphology of 05MG cancer cells ([5]; 2.5, 5 and 10 µg/mL, 72 hours (Fig. 7(A))): change the morphology of 05MG cancer cells
- growth of 05MG cells ([5]; NBM-HD-1 2.5, 5 and 10 µg/mL, sodium butyrate 4 mM, 72 hours, density and cell counting (Fig. 7)): can inhibit the growth of 05MG cells in a dose-dependent manner
- average length of the neurites ([6]; 6 days, 6 different fields, versus DMSO control (Fig. 12(B))): greater than that of the control group
- neurite outgrowth ([6]; cultivation for 6 days (Fig. 12)): could promote the neurite outgrowth
